Tested on: TNF-alpha induced hypothermia
Assay: acute hypothermia mouse model
Assay type: in vivo
Settings: 15 mg/kg, oral gavage, C57BL/6 mice
Procedure: In this example, an acute hypothermia mouse model assay was used to evaluate the ability of compounds disclosed herein to inhibit TNF-alpha induced hypothermia. Female C57BL/6 mice are randomly grouped and weighed on Day-1. On the day of the study (Day 0), mice are administered vehicle or test article by oral gavage. Fifteen minutes after oral administration of test agents, each mouse is administered an intraperitoneal (IP) injection of solution containing recombinant human tumor necrosis factor alpha (TNF-a, 25.0 μg) and zVAD-FMK (200 μg). Body temperature is measured at hour zero (before IP injections) and every hour via rectal probe temperature measuring device. Three (3) hours after IP injections of TNF-a and zVAD/FMK, mice are euthanized by CO2 asphyxiation and blood is collected via cardiac puncture. Serum and plasma are harvested for determination of cytokine and compound levels, respectively. Separate groups of mice (satellite mice) are included for the determination of compound levels in plasma at the time of administration of TNFa/zVAD-FMK. (S)-5-benzyl-N-(5-methyl-4-oxo-2,3,4,5-tetrahydrobenzo[b][1,4]oxazepin-3-yl)-4H-1,2,4-triazole-3-carboxamide (WO 2014/125444), having a structure as illustrated below, was used as a comparative compound and was examined using the same assay protocol.

## CN1C(=O)[C@@H](NC(=O)c2n[nH]c(Cc3ccccc3)n2)COc2ccc(N3CC4(CCOCC4)C3)cc21 [Compound I-5, (S)-5-benzyl-N-(5-methyl-4-oxo-7-(7-oxa-2-azaspiro[3.5]nonan-2-yl)-2,3,4,5-tetrahydrobenzo[b][1,4]oxazepin-3-yl)-1H-1,2,4-triazole-3-carboxamide]
  inhibition of TNF-alpha induced hypothermia: 81%

— patent publication US10975064B2, “RIP1 inhibitory compounds and methods for making and using the same” (Rigel Pharmaceuticals, Inc., priority 2018, dated 2021)
